# Reference: patent publication US10869878B2, “Vaginal composition and use thereof” (SINGAPORE ZE&Z INTERNATIONAL PTE. LTD, priority 2014, dated 2020)
# Like-named read-outs stand apart in the source and are kept apart here.
# Experiments:
# L. jensenii = settings: medium with 0.5% (w/v) isomaltulose, pH 5.4
# Text: (§3) The following culture media containing different concentrations of preservatives were formulated with a basal medium containing 0.5% (w/v) isomaltulose, MRS medium without carbohydrate, and 5% (w/v) calf serum:
# A. 0.1% (w/v) sodium benzoate
# B. 0.2% (w/v) sodium benzoate
# C. 0.02% (w/v) sodium dehydroacetate
# D. 0.25% (w/v) sodium propionate group
# E. 0.5% (w/v) sodium propionate group
# (§4) F. 0.02% (w/v) sodium dehydroacetate+0.25% (w/v) sodium propionate group
# (§5) G. 0.02% (w/v) sodium dehydroacetate+0.5% (w/v) sodium propionate group
# (§6) The culture medium of each group was adjusted to pH 5.4, sterilized and packed in a test tube in a specification of 2 ml/tube.
# (§7) (2) Inoculation and incubation of test strains: a bacterial suspension containing (1-5)×10^5 cfu/ml Candida glabrada isolate and a bacterial suspension containing (1-5)×10^5 cfu/ml L. jensenii were inoculated to each tube respectively. The Candida glabrada was aerobically incubated at 37° C. for 72 hrs, and the L. jensenii was microaerophilic incubated for 22 hrs.
# Candida glabrada isolate = settings: medium with 0.5% (w/v) isomaltulose, pH 5.4
# Text: as §3
# A. 0.1% (w/v) sodium benzoate
# B. 0.2% (w/v) sodium benzoate
# C. 0.02% (w/v) sodium dehydroacetate
# D. 0.25% (w/v) sodium propionate group
# E. 0.5% (w/v) sodium propionate group
# as §4, §5, §6, §7
# [1] = system: Gardnerella vaginalis in the secretions from BV patients; experiment: Selective promotion of carbohydrate containing gels for the growth of Gardnerella vaginalis (Experimental Example 4); assay type: cell-based; settings: secretions from 20 BV patients; 1% (w/v) carbohydrate gel, 48 hrs slightly aerobic
# Method: (§1) (3) After sampling, the vaginal secretion specimens from BV patients meeting the criteria of inclusion were immediately inoculated to the above 4 gels containing a carbohydrate, slightly aerobically incubated at 37° C. for 48 hrs, then transferred to a plate containing improved MRS with 1% (w/v) glucose and 5% (w/v) calf serum, slightly aerobically incubated for 20-48 hrs, isolated, purified and multiplied. The strain was identified by 16s rDNA sequencing.
# [2] = system: Bifidobacteria in the secretions from BV patients; experiment: Selective promotion of carbohydrate containing gels for the growth of Bifidobacteria (Experimental Example 4); assay type: cell-based; settings: secretions from 20 BV patients; 1% (w/v) carbohydrate gel, 48 hrs slightly aerobic
# Method: as §1
# Canidia albicans = experiment: Metabolization of carbohydrates by Canidia albicans, residual carbohydrate by HPLC (Experimental Example 5); assay type: cell-based; settings: for residual carbohydrate content by HPLC: 72 hrs aerobic, 37° C., initial 1.5% (w/v) carbohydrate, pH 7.0, detection limit 0.05% (w/v)
# Method: (1) Grouping in experiment:
# (2) Test strain: 2 strains of Canidia albicans, isolated from patients with candidal vaginitis.
# The supernatant was separated by centrifugation, and packed in a specification of 5 ml/tube. The carbohydrate content in each tube was detected by HPLC.
# [3] = system: Lactobacilli in the secretions from BV patients; experiment: Selective promotion of carbohydrate containing gels for the growth of Lactobacilli, 16s rDNA identification (Experimental Example 4); assay type: cell-based; settings: secretions from 20 BV patients; 1% (w/v) carbohydrate gel, 48 hrs slightly aerobic
# Method: as §1
# BV-associated bacteria [4] = experiment: Acid production by BV-associated bacteria in semi-solid agars containing a carbohydrate, anaerobic incubation (Experimental Example 2); assay type: cell-based; settings: 24 hrs anaerobic, 37° C., 1.5% (w/v) carbohydrate, initial pH 5.4
# Text: (1) Grouping in experiment: • (1) Glucose group: containing 1.5% (w/v) glucose, MRS basal medium without carbohydrate, 5% (w/v) calf serum, and 0.45% (w/v) agar, pH5.4; • (2) Fructose group: containing 1.5% (w/v) fructose, MRS basal medium without carbohydrate, 5% (w/v) calf serum, and 0.45% (w/v) agar, pH5.4; • (3) Mannose group: containing 1.5% (w/v) mannose, MRS basal medium without carbohydrate, 5% (w/v) calf serum, and 0.45% (w/v) agar, pH5.4; • (4) Sucrose group: containing 1.5% (w/v) sucrose, MRS basal medium without carbohydrate, 5% (w/v) calf serum, and 0.45% (w/v) agar, pH5.4; • (5) Maltose group: containing 1.5% (w/v) maltose, MRS basal medium without carbohydrate, 5% (w/v) calf serum, and 0.45% (w/v) agar, pH5.4; • (6) Isomaltose group: containing 1.5% (w/v) isomaltose, MRS basal medium without carbohydrate, 5% (w/v) calf serum, and 0.45% (w/v) agar, pH5.4; and • (7) Isomaltulose group: containing 1.5% (w/v) isomaltulose, MRS basal medium without carbohydrate, 5% (w/v) calf serum, and 0.45% (w/v) agar, pH5.4.
# The semi-solid agar of each group was formulated essentially following the method described in Composition Example 1, then sterilized, added with calf serum, and packed in test tubes in a specification of 5 g/tube, for late use.
# (§2) (2) Secretion specimens from BV patients: vaginal secretions from 5 BV patients; and the criteria of inclusion are: • (1) conforming to the Amsel clinical criteria of BV diagnosis, wherein the pH value of the vaginal secretions was >4.6; • (2) after smearing, Gram staining and microscopical examination of vaginal secretions, Nugent score ≥7; and • (3) no other vaginosis and no antimicrobial agent is used within two weeks.
# (3) After sampling, the secretion specimens from BV patients meeting the criteria of inclusion were immediately inoculated to the above 7 aseptic semi-solid agars containing a carbohydrate at the bedside and anaerobically incubated at 37° C. for 24 hrs. The pH values of the agar matrices are detected with a precise pH test paper.
# BV-associated bacteria [5] = experiment: Acid production by BV-associated bacteria in carbohydrate containing gels, slightly aerobic incubation (Experimental Example 1); assay type: cell-based; settings: 1% (w/v) carbohydrate gel
# Text: (1) Grouping in experiment: • (1) Isomaltulose group: containing 1% (w/v) isomaltulose, MRS basal medium without carbohydrate, 5% (w/v) calf serum, and 0.5% (w/v) xanthan gum, pH5.4; • (2) Isomaltose group: containing 1% (w/v) isomaltose, MRS basal medium without carbohydrate, 5% (w/v) calf serum, and 0.5% (w/v) xanthan gum, pH5.4; • (3) Sucrose group: containing 1% (w/v) sucrose, MRS basal medium without carbohydrate, 5% (w/v) calf serum, and 0.5% (w/v) xanthan gum, pH5.4; and • (4) Maltose group: containing 1% (w/v) maltose, MRS basal medium without carbohydrate, 5% (w/v) calf serum, and 0.5% (w/v) xanthan gum, pH5.4.
# The gel of each group was formulated essentially following the method described in Composition Example 1, then sterilized, added with calf serum, and packed in test tubes in a specification of 5 g/tube, for late use.
# as §2
# (3) After sampling, the secretion specimens from BV patients meeting the criteria of inclusion were immediately inoculated to the above 4 gels containing a carbohydrate, and slightly aerobically incubated at 37° C. for 46 hrs. The pH values of the gel matrices are detected with a precise pH test paper respectively at 14 hrs, 36 hrs, and 46 hrs.
# BV = settings: cited from earlier work; for cure rate for BV: Livengood 2007
# [6] = 0.02% (w/v) sodium dehydroacetate
smiles,measurement,setting,value
CCC(=O)[O-].[Na+] [sodium propionate],"turbidity, Lactobacilli (0 hr)",L. jensenii; 0.25% (w/v) sodium propionate,0.6
same,"turbidity, Lactobacilli (22 hrs)",L. jensenii; 0.25% (w/v) sodium propionate,5.2
same,"turbidity, Lactobacilli (0 hr)",L. jensenii; 0.5% (w/v) sodium propionate,0.4
same,"turbidity, Lactobacilli (22 hrs)",L. jensenii; 0.5% (w/v) sodium propionate,1.7
same,"turbidity, Candida (0 hr)",Candida glabrada isolate; 0.25% (w/v) sodium propionate,0.5
same,"turbidity, Candida (72 hrs)",Candida glabrada isolate; 0.25% (w/v) sodium propionate,>7.5
same,"turbidity, Candida (0 hr)",Candida glabrada isolate; 0.5% (w/v) sodium propionate,0.4
same,"turbidity, Candida (72 hrs)",Candida glabrada isolate; 0.5% (w/v) sodium propionate,6.3
O=C([O-])c1ccccc1.[Na+] [sodium benzoate],"turbidity, Lactobacilli (0 hr)",L. jensenii; 0.1% (w/v) sodium benzoate,0.6
same,"turbidity, Lactobacilli (22 hrs)",L. jensenii; 0.1% (w/v) sodium benzoate,0.9
same,"turbidity, Lactobacilli (0 hr)",L. jensenii; 0.2% (w/v) sodium benzoate,0.7
same,"turbidity, Lactobacilli (22 hrs)",L. jensenii; 0.2% (w/v) sodium benzoate,0.7
same,"turbidity, Candida (0 hr)",Candida glabrada isolate; 0.1% (w/v) sodium benzoate,0.6
same,"turbidity, Candida (72 hrs)",Candida glabrada isolate; 0.1% (w/v) sodium benzoate,7.1
same,"turbidity, Candida (0 hr)",Candida glabrada isolate; 0.2% (w/v) sodium benzoate,0.6
same,"turbidity, Candida (72 hrs)",Candida glabrada isolate; 0.2% (w/v) sodium benzoate,2.1
"OC[C@H]1O[C@H](O[C@H]2[C@H](O)[C@@H](O)C(O)O[C@@H]2CO)[C@H](O)[C@@H](O)[C@@H]1O (mixture of isomers) [Maltose, maltose]",number of samples positive for Gardnerella vaginalis,[1],"6 (2, 6, 7, 9, 15, 19)"
same,"samples positive for Gardnerella vaginalis, In total",[1],6
same,number of samples positive for Bifidobacterium bifidum,[2],1 (8)
same,number of samples positive for Bifidobacterium breve,[2],0
same,number of samples positive for Bifidobacterium dentium,[2],0
same,number of samples positive for Bifidobacterium longum,[2],0
same,"samples positive for Bifidobacteria, In total",[2],1
same,residual carbohydrate content by HPLC,Canidia albicans; Canidia albicans 1,Not detected^1
same,residual carbohydrate content by HPLC,Canidia albicans; Canidia albicans 2,Not detected
same,residual concentration,"Canidia albicans; both strains of Canidia albicans, 72 hrs, initial 1.5% (w/v)",below 0.05 % (w/v)
same,"samples positive for Lactobacilli, In total",[3],8
same,total number of samples positive for L. amylovorus incubation,[3],1
same,total number of samples positive for L. crispatus incubation,[3],1
same,total number of samples positive for L. gasseri incubation,[3],2
same,total number of samples positive for L. iners incubation,[3],0
same,total number of samples positive for L. jensenii incubation,[3],3
same,total number of samples positive for L. mucosae incubation,[3],1
same,pH of the semi-solid agar,BV-associated bacteria [4]; Specimen 1,3.8
same,pH of the semi-solid agar,BV-associated bacteria [4]; Specimen 2,3.8
same,pH of the semi-solid agar,BV-associated bacteria [4]; Specimen 3,3.8
same,pH of the semi-solid agar,BV-associated bacteria [4]; Specimen 4,3.8
same,pH of the semi-solid agar,BV-associated bacteria [4]; Specimen 5,3.8
same,pH of the gel,"BV-associated bacteria [5]; Specimen 1, 0 hr (initial)",5.4
same,pH of the gel,"BV-associated bacteria [5]; Specimen 1, 14 hrs, slightly aerobic, 37° C., initial pH 5.4",3.8
same,pH of the gel,"BV-associated bacteria [5]; Specimen 1, 46 hrs, slightly aerobic, 37° C., initial pH 5.4",≤3.8
same,pH of the gel,"BV-associated bacteria [5]; Specimen 2, 0 hr (initial)",5.4
same,pH of the gel,"BV-associated bacteria [5]; Specimen 2, 14 hrs, slightly aerobic, 37° C., initial pH 5.4",4.1-4.4
same,pH of the gel,"BV-associated bacteria [5]; Specimen 2, 46 hrs, slightly aerobic, 37° C., initial pH 5.4",≤3.8
same,pH of the gel,"BV-associated bacteria [5]; Specimen 3, 0 hr (initial)",5.4
same,pH of the gel,"BV-associated bacteria [5]; Specimen 3, 14 hrs, slightly aerobic, 37° C., initial pH 5.4",4.1-4.4
same,pH of the gel,"BV-associated bacteria [5]; Specimen 3, 36 hrs, slightly aerobic, 37° C., initial pH 5.4",≤3.8
same,pH of the gel,"BV-associated bacteria [5]; Specimen 4, 0 hr (initial)",5.4
same,pH of the gel,"BV-associated bacteria [5]; Specimen 4, 14 hrs, slightly aerobic, 37° C., initial pH 5.4",4.6
same,pH of the gel,"BV-associated bacteria [5]; Specimen 4, 36 hrs, slightly aerobic, 37° C., initial pH 5.4",≤3.8
same,pH of the gel,"BV-associated bacteria [5]; Specimen 5, 0 hr (initial)",5.4
same,pH of the gel,"BV-associated bacteria [5]; Specimen 5, 14 hrs, slightly aerobic, 37° C., initial pH 5.4",4.1-4.4
same,pH of the gel,"BV-associated bacteria [5]; Specimen 5, 36 hrs, slightly aerobic, 37° C., initial pH 5.4",4.1-4.4
"O=C(CO)[C@@H](O)[C@H](O)[C@H](O)CO [Fructose, fructose]",pH of the semi-solid agar,BV-associated bacteria [4]; Specimen 1,4.6
same,pH of the semi-solid agar,BV-associated bacteria [4]; Specimen 2,4.1
same,pH of the semi-solid agar,BV-associated bacteria [4]; Specimen 3,3.8-4.1
same,pH of the semi-solid agar,BV-associated bacteria [4]; Specimen 4,4.1
same,pH of the semi-solid agar,BV-associated bacteria [4]; Specimen 5,3.8
CCS(=O)(=O)CCn1c([N+](=O)[O-])cnc1C [tinidazole],cure rate for BV,"BV; FDA 1998 guideline, both the clinical and microbiological cure standards met",37%
same,cure rate for BV,BV; cure if 3 of the 4 traditional Amsel clinical criteria are normal,57%
Cc1ncc([N+](=O)[O-])n1CCO [metronidazole],cure rate,BV; BV patients,about 60%
CC(=O)c1c([O-])cc(C)oc1=O.[Na+] [sodium dehydroacetate],"turbidity, Lactobacilli (0 hr)",L. jensenii; [6],0.5
same,"turbidity, Lactobacilli (22 hrs)",L. jensenii; [6],1.4
same,"turbidity, Candida (0 hr)",Candida glabrada isolate; [6],0.5
same,"turbidity, Candida (72 hrs)",Candida glabrada isolate; [6],3.9
